The text below walks through data of ChEMBL document CHEMBL1131260, “Studies on selectin blockers. 6. Discovery of homologous fucose sugar unit necessary for E-selectin binding” (J Med Chem, 1998).

For this assay, the target named is T1, E-selectin (Homo sapiens, UniProt P16581).
T1 sequence (P16581 whole entry): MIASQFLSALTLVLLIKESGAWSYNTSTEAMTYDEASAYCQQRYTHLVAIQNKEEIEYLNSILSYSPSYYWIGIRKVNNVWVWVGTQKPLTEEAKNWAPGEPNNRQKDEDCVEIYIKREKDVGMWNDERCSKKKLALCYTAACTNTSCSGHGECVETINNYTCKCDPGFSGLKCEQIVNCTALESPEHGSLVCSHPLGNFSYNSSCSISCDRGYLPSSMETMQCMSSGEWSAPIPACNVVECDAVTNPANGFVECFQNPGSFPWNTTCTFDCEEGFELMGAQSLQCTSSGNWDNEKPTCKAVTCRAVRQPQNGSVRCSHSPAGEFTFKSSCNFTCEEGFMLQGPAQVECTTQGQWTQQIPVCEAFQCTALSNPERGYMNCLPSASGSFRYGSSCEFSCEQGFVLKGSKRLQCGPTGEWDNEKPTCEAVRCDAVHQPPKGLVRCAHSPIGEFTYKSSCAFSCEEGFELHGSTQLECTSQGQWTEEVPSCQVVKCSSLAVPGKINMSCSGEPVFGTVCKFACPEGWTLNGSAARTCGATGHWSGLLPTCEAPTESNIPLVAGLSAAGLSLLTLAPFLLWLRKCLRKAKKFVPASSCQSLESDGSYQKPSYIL
The assay can be described thus: In vitro inhibitory activity against Selectin E-sialyl Lewis X (sLex) binding.

With `CCCCCCCCCCCCCCC(CCCCCCCCCCCCCC)C(=O)N[C@H](CO[C@@H]1O[C@H](C(C)O)[C@@H](O)[C@@H]1O)C(=O)N[C@@H](CCC(=O)O)C(=O)NC.N=C(N)NCCC[C@H](N)C=O` (some centres undefined), the IC50 (in general, the concentration needed to halve the response being measured) is 4.3 µM.

In turn, `CCCCCCCCCCCCCCC(CCCCCCCCCCCCCC)C(=O)NC(CO[C@@H]1O[C@@H](O)[C@@H](O)[C@H](O)[C@@H]1O)C(=O)N[C@@H](CCC(=O)O)C(=O)NC` (single isomer, unassigned) gave an IC50 of 1.5 µM. This IC50 is about 2.9-fold lower than that of the compound before.

Turning to `CCCCCCCCCCCCCCC(CCCCCCCCCCCCCC)C(=O)N[C@@H](CO[C@@H]1O[C@H](C(C)O)[C@@H](O)[C@@H]1O)C(=O)N[C@H](CCC(=O)O)C(=O)NC` (some centres undefined), the IC50 worked out at 3.1 µM. Against the preceding compound, the IC50 is about 2.1-fold higher.

Compound `CCCCCCCCCCCCCCC(CCCCCCCCCCCCCC)C(=O)NC(COC1O[C@@H](O)[C@@H](O)[C@H](O)[C@@H]1O)C(=O)N[C@H](CCC(=O)O)C(=O)NC` (single isomer, unassigned) had a half-maximal inhibitory concentration (IC50) of 13 µM.
